{"source": "patent US20120136033A1", "about": "“Small Molecule Antagonists of Phosphatidylinositol-3,4,5-Triphosphate (PIP3) and Uses Thereof” (President and Fellows of Harvard College, priority 2009, published 2012)", "key": {"PDK1 PH domain": {"biological_target": "T1, PDK1 PH domain (Homo sapiens, UniProt O15530)", "T1 construct": "100 nM 441-551 a.a. region of human PDK1; made in house; host or cells: E. coli BL21(DE3)", "T1 sequence (O15530 441-551)": "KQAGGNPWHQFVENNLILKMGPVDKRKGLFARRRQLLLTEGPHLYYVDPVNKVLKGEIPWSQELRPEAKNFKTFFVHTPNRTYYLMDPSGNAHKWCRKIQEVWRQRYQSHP", "experiment": "FP assay, PIP3 binding to PDK1 PH domain", "conditions": "15 nM TMR-PIP3, 100 nM PDK1 PH domain, 0-200 μM", "procedure": "(§1) FIG. 4 is a graph depicting concentration-dependent competitive inhibition of PIP3-PH domain interaction by PIT-1 and PIT-2. 15 nM TMR-conjugated PIP3 were incubated with 100 nM PDK1 PH domain in the presence or absence of the indicated concentrations of PITs (0-200 μM) for 30 min, followed by FP measurement.\n(§2) In order to identify compounds that disrupt the interaction between PIP3 and PH domains, a high-throughput fluorescence polarization (FP)-binding assay was developed using recombinant 1-123 amino acid N-terminal fragment of human Akt1 (also referred to herein simply as Akt), encompassing the PH domain (PH123 protein), and fluorescent NBD-labeled PIP3 molecule. The amino acid sequence of human Akt1 is publicly available as, for example, GenBank Accession No. NP_001014432.1 (SEQ ID NO:1), and the corresponding DNA sequence is publicly available as, for example, GenBank Accession No. NM_001014432. Briefly, 5 μM recombinant GST fusion proteins containing 1-123 a.a. N-terminal fragment of human Akt1 (PH 123) or 100 nM 441-551 a.a. region of human PDK1 were incubated with 15 nM TMR-labeled PIP3, PIP2, or PIP5 in buffer containing 50 mM Tris-HCl (pH 7.5), 150 mM NaCl, and 5 mM b-ME for 15 min at room temperature in the dark. FP values were determined using Wallac Victor 3 plate reader. […]"}, "PLC-δ PH domain": {"biological_target": "T2, PLC-δ PH domain (Homo sapiens, UniProt P51178)", "T2 construct": "100 nM PLC-δ PH domain", "T2 sequence (P51178 21-130 limits assumed)": "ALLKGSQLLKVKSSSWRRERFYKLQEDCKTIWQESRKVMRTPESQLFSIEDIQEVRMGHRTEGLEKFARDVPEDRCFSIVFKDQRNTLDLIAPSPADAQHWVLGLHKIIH", "experiment": "FP assay, PIP2 binding to PLC-δ PH domain", "conditions": "15 nM TMR-PIP2, 100 nM PLC-δ PH domain, 0-200 μM", "procedure": "as §1, with “FIG. 5” for “FIG. 4”, “depicting specificity and” for “depicting”, “TMR-conjugated PIP2” for “TMR-conjugated PIP3”, “nM PLC-δ” for “nM PDK1”\nas §2"}, "human cancer cells": {"system": "human cancer cells", "experiment": "transwell (Boyden chamber) migration of cancer cells", "type": "cell-based", "conditions": "for inhibition of cancer cell migration: transwell / wound healing models", "procedure": "(§3) Two models of cell migration were used, a transwell migration model and a wound closure model. Migration of cancer and endothelial cells was evaluated using 24-transwell Boyden chamber (Costar, Bedford, Mass.) with a polystyrene membrane (6.5 mm diameter, 10 μm thickness, and 8 μm pore size). Cells were suspended in serum-free media and seeded in the upper compartment of each well (2×10^4 cells/well) in the presence or absence of different compounds at the indicated concentrations. The lower compartment contained 600 μl of serum-free culture media supplemented with growth factors. After an 8-hr incubation at 37° C., cells were fixed and stained with 0.1% crystal violet. Non-migrating cells on the upper surface of the filter were removed, and the stained cells that migrated to the lower side were photographed using a phase-contrast microscope (Nikon, Japan) in five random fields. The cells were lysed with 10% acetic acid, and colorimetric determination was made at 595 nm using Wallac Victor 3 plate reader."}, "[1]": {"system": "SUM159 cells transfected with VAV2 or WAVE2", "experiment": "wound healing migration of VAV- or WAVE-overexpressing SUM159 cells", "type": "cell-based, human", "conditions": "100 μM, PDGF, 8 hr", "procedure": "SUM159 cells were transfected with VAV2 or WAVE2. Scratch wound was generated in cell monolayer, followed by treatment with PIT-1 (100 μM) in the presence of PDGF (100 ng/ml) stimulation for 8 hr. The inhibitory effect of PITs on VAV- or WAVE-induced cell migration was calculated according to the width of wound. The width of wounded cell monolayers was measured in five random fields."}, "HUVEC": {"system": "HUVEC", "experiment": "HUVEC migration, wound healing and transwell assays", "type": "cell-based, human", "procedure": "as §3\nCancer or endothelial cells were seeded into fibronectin-coated 96-well plates (2×10^4 cells/well). […]\nSecond, HUVEC were serum starved and treated with PITs (25, 50 100 μM) or PIT-1is (100 μM) for 8 hr, followed by bFGF (10 ng/ml) stimulation for 15 min. […] The number of cell ruffles/lamellipodia was counted in five random fields."}}, "data": [{"smiles": "O=C(NC(=S)Nc1cc([N+](=O)[O-])cc(Cl)c1O)c1ccccc1", "note": "[PIT-1]", "values": [{"measurement": "inhibition of binding of PIP3 to the PH domain of PDK1", "setting": "PDK1 PH domain", "value": "inhibited binding"}, {"measurement": "inhibition of interaction between PIP2 and PH domain of PLC-δ", "setting": "PLC-δ PH domain", "value": "failed to inhibit"}, {"measurement": "growth factor-induced transwell migration of human cancer cells", "setting": "human cancer cells; 8 hr", "value": "substantially inhibited"}, {"measurement": "inhibition of cancer cell migration", "setting": "human cancer cells", "value": "much stronger than that of Akt kinase inhibitor VIII"}, {"measurement": "inhibition of cell migration in VAV- and WAVE-overexpressing cells compared to control cells", "setting": "[1]", "value": "larger degree of inhibition"}, {"measurement": "migration of HUVEC cells", "setting": "HUVEC", "value": "efficiently blocked migration"}]}, {"smiles": "O=C1NC(=S)S/C1=C\\c1cc(O)c([N+](=O)[O-])cc1Cc1ccccc1", "note": "[PIT-2]", "values": [{"measurement": "inhibition of binding of PIP3 to the PH domain of PDK1", "setting": "PDK1 PH domain", "value": "inhibited binding"}, {"measurement": "inhibition of interaction between PIP2 and PH domain of PLC-δ", "setting": "PLC-δ PH domain", "value": "failed to inhibit"}, {"measurement": "inhibition of cancer cell migration", "setting": "human cancer cells", "value": "efficiently inhibited cell migration"}, {"measurement": "inhibition of cell migration in VAV- and WAVE-overexpressing cells compared to control cells", "setting": "[1]", "value": "larger degree of inhibition"}, {"measurement": "migration of HUVEC cells", "setting": "HUVEC", "value": "efficiently blocked migration"}]}]}
